Marks after values point to notes of the source that are not given here.
Legend:
HS683 (brain glioma) = test: MTT cell proliferation assay, HS683; assay type: cell-based; details: Homo sapiens, Hs 683, 72 h incubation, 95% confidence interval in parentheses
Procedure: (§1) To use these S-glycosidic compounds in cellulo, the potential impact of the glycosidic linkage nature on the anticancer activity was assessed. The S-glycoside derivatives and the 7-MC were tested against four human cancer cell lines and a healthy one, namely A549 (lung carcinoma), HS-683 (glioma cancer), MCF-7 (breast adenocarcinoma), SK-MEL-28 (melanoma skin cancer), and HaCaT (keratinocyte normal skin), using MTT (thiazolyl blue tetrazolium bromide, Sigma-Aldrich, St. Louis, MO, USA) assay, as previously described in the literature. The selected reference drugs were 5-fluorouracil (5-FU) and etoposide.
(§2) Cell proliferation of five distinct cell lines was evaluated using the colorimetric MTT (thiazolyl blue tetrazolium bromide, Sigma) assay. Human keratinocyte normal skin HaCaT was cultivated in DMEM supplemented with 4.5 g/L glucose, 2 mM L-glutamine, and 10% FBS. Cancer cell lines and their respective growth media were obtained from CLS Cell Line Service GmbH (Eppelheim, Germany). Specifically, human skin melanoma SK-MEL-28 and human brain glioma HS683 were cultivated in DMEM with identical supplements as HaCaT cells. The human lung carcinoma cell line A-549 was grown in DMEM/Ham’s F12 (1:1) medium supplemented with 2 mM L-glutamine and 5% FBS. Additionally, human breast adenoma carcinoma MCF-7 cells were sustained in EMEM supplemented with 2 mM L-glutamine, sodium pyruvate, non-essential amino acids (NEAAs), 10 µg/mL insulin human, and 10% FBS. The MTT assay relies on the reduction of the yellow product thiazolyl blue tetrazolium bromide (MTT) to formazan, a purple-blue product, by mitochondrial dehydrogenases in metabolically active cells. The number of living cells after incubation in the presence (or absence, control) of the tested molecules is directly proportional to the blue color, which was measured by spectrophotometry. To perform the assay, cells were initially seeded at a density of 2500 cells/mL in 96-well culture plates (Nunc™ Edge 2.0, Fisher) and allowed to adhere and proliferate over a 24-hour incubation period. Following this, the cells were treated with various concentrations of the tested compounds, which were previously prepared as serial dilutions and dissolved in 0.1% DMSO. These stable solutions guarantee the consistency of experimental conditions over extended periods. Each concentration of the tested compounds underwent triplicate testing (n = 3), and cells were subsequently incubated for 72 h to allow for thorough evaluation. Following this incubation period, MTT reagent (5 mg/mL solution in PBS) was introduced to each well (10% v/v), and cells were further incubated for 4 h. Then, the culture medium was carefully removed, and the resulting blue formazan crystals were dissolved in 100 µL of 100% DMSO. Absorbance readings were taken at 540 nm, referencing a wavelength of 620 nm, using a spectrophotometer. In determining the IC50, the absorbance of serial dilutions of each cell line, treated under identical conditions but without the presence of the tested compounds, was measured.

[1] = test system: MCF-7 (breast adenocarcinoma); test: MTT cell proliferation assay, MCF-7; assay type: cell-based; details: Homo sapiens, MCF7, 72 h incubation, 95% confidence interval in parentheses
Procedure: as §1, §2

[2] = test system: SK-MEL-28 (melanoma skin cancer); test: MTT cell proliferation assay, SK-MEL-28; assay type: cell-based; details: Homo sapiens, 72 h incubation, 95% confidence interval in parentheses
Procedure: as §1, §2

[3] = test system: HaCaT (keratinocyte normal skin); test: MTT cell proliferation assay, HaCaT; assay type: cell-based; details: Homo sapiens, 72 h incubation, 95% confidence interval in parentheses
Procedure: as §1, §2

[4] = UV-visible absorbance spectroscopy; assay type: physicochemical; details: 0.1 mM
Procedure: Subsequently, the analysis was carried out under two distinct conditions: firstly, in DMF, at a final concentration of 0.1 mM; and secondly, in a mixture PBS:DMF (99:1%), at the same final concentration of 0.1 mM. These two experimental setups provided valuable insights into the spectral characteristics of the compounds in both a pure organic solvent and a solvent system closely resembling physiological conditions. The maxima absorption wavelengths are compiled in Table 3. These bands were attributed to transitions within the benzene and pyrone moieties, considered together as a single chromophore. […] Similarly, 7-MC and S-1 to S-6 compounds also absorb in this UV range (λmax = 328–330 nm). […] In the organic solvent, these values are found to be higher compared to those calculated for 4-MUB and 7-MC. Conversely, in PBS, the extinction coefficients for S-glycosides are lower compared to the parent thiol 7-MC. This highlights the profound impact of glycosylation on absorption properties, as well as the importance of solvent choice.
(§3) Both absorbance and fluorescence spectra were measured on a Tecan […] M PLEX 200 Pro plate reader equipped with monochromator allowing a scan from 230 to 1000 nm. All synthesized molecules were initially dissolved in 10 mM DMF and subsequently diluted in freshly prepared PBS (pH = 7.4) to achieve a final concentration of 0.1 mM. The solutions were then transferred to a Corning (Corning, NY, USA) UV-transparent 96-well plate. Absorbance spectra were recorded from 230 to 800 nm. Emission fluorescence spectra were recorded from 320 to 800 nm, under excitation at 280 nm. Excitation fluorescence spectra were recorded from 230 to 380 nm for an emission at 420 nm. All spectra were recorded with a wavelength step size of 2 nm. Data processing was performed with Excel software 2016. Fluorescence spectra are presented as normalized spectra ranging from 0 to 1. The relative quantum yields were calculated according to Equation (1):(1) ΦT=(AR/AT)×(FT/FR)×[…]×ΦR where Φ is the fluorescence quantum yield, A is the absorbance at the excitation wavelength, F is the area under the corrected emission curve, and n is the refractive index of the solvent for the test compound (T) and the reference (R). The 4-MUB value in DMF was used as the reference. The LOD (resp. LOQ) values were determined as the minimal concentration of product S-3 required to yield a fluorescence that was twice greater than (respectively, 5-times that of) the fluorescence noise on a sample containing PBS, using an excitation wavelength of 280 nm and an emission wavelength of 386 nm (Figure S44).

[5] = Fluorescence excitation/emission spectroscopy and relative quantum yield; assay type: physicochemical; details: 7-MC in presence of 10 mM DTT; for Fluorescence λmax ex: emission at 420 nm; for Fluorescence λmax em: excitation at 280 nm
Procedure: The values determined were close to those observed for the 4-MUB fluorophore.
as §3, with “All synthesized molecules were initially dissolved in 10 mM DMF and subsequently diluted in freshly prepared PBS (pH = 7.4) to achieve a final concentration of 0.1 mM.” left out

[6] = parameters: method as in doi:10.1016/1010-6030(89)87054-6; details: DMF; ref [50]; cited from earlier work
A-549 (lung carcinoma) = test: MTT cell proliferation assay, A-549; assay type: cell-based, human; details: Homo sapiens, A549, 72 h, 72 h incubation, 95% confidence interval in parentheses
Procedure: as §1, with “literature.” for “literature. The selected reference drugs were 5-fluorouracil (5-FU) and etoposide.”
as §2, with “These stable solutions guarantee the consistency of experimental conditions over extended periods.” left out

[7] = DMF, 7-MC in presence of 10 mM DTT

| IC50 (HS683 (brain glioma)) [µM] | IC50 [1] [µM] | IC50 [2] [µM] | Absorbance ε (molar absorption coefficient) [4, 7] | Absorbance λmax abs [4, 7] [nm] | emax (molar absorption coefficient) ([4]; PBS 1x (pH = 7.4), 7-MC + DTT 10 mM) | Absorbance λmax abs ([4]; PBS (PBS:DMF 99:1, pH 7.4), 7-MC in presence of 10 mM DTT) [nm] | Fluorescence λmax ex ([5]; DMF, 0.1 mM) [nm] | Fluorescence λmax em ([5]; DMF, 0.1 mM) [nm] | Fluorescence λmax ex ([5]; PBS pH 7.4, 0.1 mM) [nm] | Fluorescence λmax em ([5]; PBS pH 7.4, 0.1 mM) [nm] | Relative quantum yield Φ ([5]; PBS, relative to 4-MUB in DMF) | IC50 (A-549 (lung carcinoma)) [µM] | SMILES | IC50 [3] [µM] | Quantum yield Φ (reference value) [6] |
| --- | --- | --- | --- | --- | --- | --- | --- | --- | --- | --- | --- | --- | --- | --- | --- |
| 37 | 4.8 | 6.6 |  |  |  |  |  |  |  |  |  |  | O=c1[nH]cc(F)c(=O)[nH]1 [Compound 5-FU, 5-fluorouracil, reference compound] | 0.4 |  |
|  |  |  | 17.0 10^3 M^−1 cm^−1 | 322 | 20129,15057 cm-1 M-1 | 324 | 320 | 380 | 333 | 448 | 0.293 |  | Cc1cc(=O)oc2cc(O)ccc12 [Compound 4-MUB, 4-methylumbelliferone, reference compound] |  | 0.081 ^a |
| 1.6 | 3.9 | 3.2 |  |  |  |  |  |  |  |  |  | 1.6 | COc1cc([C@@H]2c3cc4c(cc3[C@@H](O[C@@H]3O[C@@H]5CO[C@@H](C)O[C@H]5[C@H](O)[C@H]3O)[C@H]3COC(=O)[C@H]23)OCO4)cc(OC)c1O [Etoposide, etoposide, reference compound] | 0.5 |  |

Reference: publication PMC10974290, “Biocatalytic Synthesis of Coumarin S-Glycosides: Towards Non-Cytotoxic Probes for Biomedical Imaging and Sensing” (Molecules, 2024)
